Assay results as given in patent EP0340778A2, “Prodrugs of 2',3'- Didehydro-2',3'-Dideoxynucleosides” (Bristol-Myers Squibb Company, priority 1988, dated 1989).
Like-named read-outs stand apart in the source and are kept apart here.

System: HIV (LAV strain)
Experiment: anti-HIV/LAV activity in cultures of CEM-F cells, p-24 gag protein enzyme capture assay (ELISA)
Assay type: cell-based
Conditions: Human immunodeficiency virus 1, CCRF-CEM, 192 h, read-out: ID₅₀
Protocol: The anti-HIV/LAV activity of several compounds representative of this invention and of d4T for comparison was measured in cultures of CEM-F cells. The CEM cells were infected with approximately 30 TCID₅₀ (50% tissue culture infectious dose) of HIV (LAV strain). The cells were then incubated for 45 min 37°C. The test compounds, in culture medium, were added at various concentrations to the infected cells and then incubated for a further 8 days. After 8 days the antiviral activity was evaluated in the culture media supernatant for p-24 gag protein by an enzyme capture assay (ELISA). The antiviral activity was expressed as the dose which inhibits 50% of the virus expression (ID₅₀ in µM) as detected by the assay described.

[1] = dose which inhibits 50% of the virus expression, CEM cells infected with approximately 30 TCID₅₀ of HIV (LAV strain), 8 days incubation with compound, p-24 gag protein in culture media supernatant

SMILES | IC50 [nM] | IC50 [1] [nM]
CC(=O)OC[C@@H]1C=C[C@H](n2cc(C)c(=O)[nH]c2=O)O1 [Example 1, 5′-O-Acetyl-2′,3′-didehydro-2′,3′-dideoxythymidine] | 3200 | 
O=C(OC[C@@H]1C=C[C@H](n2ccc(=S)[nH]c2=O)O1)c1ccccc1 [Example 11, 5′-O-Benzoyl-2′,3′-didehydro-2′,3′-dideoxy-4-thio-uridine] |  | 500
Cc1cn([C@H]2C=C[C@@H](COC(=O)C(C)(C)C)O2)c(=O)[nH]c1=O [Example 4, 5′-O-Pivaloyl-2′,3′-didehydro-2′,3′-dideoxythymidine] | 4800 | 
Cc1cn([C@H]2C=C[C@@H](COC(=O)OC3CCCCC3)O2)c(=O)[nH]c1=O [Example 6, 5′-O-Cyclohexyloxycarbonyl-2′,3′-didehydro-2′,3′-dideoxy-thymidine] | 600 | 
Nc1ccn([C@H]2C=C[C@@H](COC(=O)c3ccccc3)O2)c(=O)n1 [Example 12, 5′-O-Benzoyl-2′,3′-didehydro-2′,3′dideoxycytidine] |  | 100
Cc1cn([C@H]2C=C[C@@H](CO)O2)c(=O)[nH]c1=O [d4T, 2′,3′-didehydro-2′,3′-dideoxythymidine, reference compound] | 200 | 
COC(=O)OC[C@@H]1C=C[C@H](n2cc(C)c(=O)[nH]c2=O)O1 [Example 5, 5′-O-Methoxycarbonyl-2′,3′-didehydro-2′,3′-dideoxythymidine] | 3200 | 
COCC(=O)OCC1C=CC(n2cc(C)c(=O)[nH]c2=O)O1 (stereo not drawn) [Example 3, 5′-O-Methoxyacetyl-2′,3′-didehydro-2′,3′-dideoxythymidine] | 400 | 
Cc1cn(C2C=CC(COC(=O)c3ccccc3)O2)c(=O)[nH]c1=S (stereo not drawn) [Example 8, 5′-O-Benzoyl-2′,3′-dihydro-2′,3′-dideoxy-4-thio-thymidine] | 500 | 
